Series [1] relates to Salmonella typhimurium (ATCC 13311). The conditions noted are these: for MIC Salmonella typhimurium: ATCC 13311; for p(MIC) Salmonella typhimurium: -log(MIC).
Series [2] concerns Bacillus subtillis (ATCC 43223). The conditions noted are these: for MIC Bacillus Subtillis: ATCC 43223; for p(MIC) Bacillus Subtillis: -log(MIC).
The subject of series [3] is Mycobacterium ranae (ATCC 110).
The test system of series [4] is Staphylococcus aureus Methicillin/Gentamicin/Tetracycline Resistant (ATCC 33592). Particulars: for p(MIC) Staphylococcus aureus ME/GM/TC resistant: -log(MIC); for MIC Staphylococcus aureus ME/GM/TC resistant: Minimal Inhibitory Concentration, tested at 100-0.1 in 1% DMSO; for Minimum Inhibitory Concentration Staphylococcus aureus ME/GM/TC resistant: in vitro MIC, tested at 100, 30, 10, 3, 1, 0.3 and 0.1 μM in 1% DMSO; for Actual Bioactivity: p(MIC) used in Staphylococcus aureus QSAR model.

The nature of series [5]: in vitro. The conditions noted are these: dog, microsomes, pH 7.4.
The nature of series [6]: in vitro. The conditions noted are these: rat, microsomes, pH 7.4.
The nature of series [7]: in vitro. The conditions noted are these: mouse, microsomes, pH 7.4.
Series [8] is described as follows: in vitro. Particulars: monkey, microsomes, pH 7.4.

SMILES strings stand for the structures. In brackets after ≈: the same amount, converted by molar mass. Like-named read-outs stand apart in the source and are kept apart here. Where a SMILES comes first, the peptide text is derived from it. [ ]: non-standard residue; d: D form. The star is where a group is joined. ξ: configuration not given here. Biotin = O=C1N[C@H]2[C@H](CS[C@H]2CCCCC(=O)*)N1; Oic = O=C(O)[C@@H]1C[C@@H]2CCCC[C@@H]2N1; Phe(4-Cl) = N[C@@H](Cc1ccc(Cl)cc1)C(=O)O; Phe(4-F) = N[C@@H](Cc1ccc(F)cc1)C(=O)O; Tic = O=C(O)[C@@H]1Cc2ccccc2CN1; ξTic = O=C(O)C1Cc2ccccc2CN1; ξOic = O=C(O)C1CC2CCCCC2N1; Orn = NCCC[C@H](N)C(=O)O; Dap = NC[C@H](N)C(=O)O; NH(CH2)3NH2 = NCCCN*; βAla = NCCC(=O)O

Turning to `CC(=O)NCC(=O)N[C@@H](Cc1ccccc1)C(=O)N1Cc2ccccc2CC1C(=O)NCC(=O)NCC(=O)N[C@@H](CCCCN)C(=O)N1Cc2ccccc2CC1C(=O)NCC(=O)NCC(=O)N[C@@H](Cc1ccccc1)C(=O)N1Cc2ccccc2CC1C(=O)NCC(=O)NCC(=O)N[C@@H](CCCCN)C(=O)N1Cc2ccccc2CC1C(=O)N[C@@H](CCCCN)C(=O)N[C@@H](CCCCN)C(=O)N[C@@H](CCCCN)C(=O)N[C@@H](CCCCN)C(N)=O` (stereo partly drawn) [FKAB-1Gg1, Ac-GF-Tic-G-GK-Tic-G-GF-Tic-G-GK-Tic-KKKK-CONH2] (Ac-GF[ξTic]GGK[ξTic]GGF[ξTic]GGK[ξTic]KKKK-NH2), the “MIC Salmonella typhimurium” value in series [1] was determined as 100 µM (≈ 216 µg/mL). Also, in the series with red blood cells, the “% hemolysis 100/25 μM (first value)” value worked out at 5.70%/ and the “% hemolysis 100/25 μM (second value)” value was determined as 3.80%. Moreover, in [2], the “MIC Bacillus Subtillis” value stood at 10.00 µM (≈ 21.6 µg/mL). Besides, the “MIC Mycobacterium ranae” value in [3] (ATCC 110) is 30.00 µM (≈ 64.8 µg/mL).

As for `CC(=O)NCC(=O)N[C@@H](Cc1ccc(Cl)cc1)C(=O)N1Cc2ccccc2C[C@H]1C(=O)N1[C@H](C(=O)NCC(=O)N[C@@H](CCCCN)C(=O)N2Cc3ccccc3C[C@H]2C(=O)N2[C@H](C(=O)NCC(=O)N[C@@H](Cc3ccc(Cl)cc3)C(=O)N3Cc4ccccc4C[C@H]3C(=O)N3[C@H](C(=O)NCC(=O)N[C@@H](CCCCN)C(=O)N4Cc5ccccc5C[C@H]4C(=O)N[C@@H](CCCCN)C(=O)N[C@@H](CCCCN)C(=O)N[C@@H](CCCCN)C(=O)N[C@@H](CCCCN)C(N)=O)C[C@@H]4CCCC[C@@H]43)C[C@@H]3CCCC[C@@H]32)C[C@@H]2CCCC[C@@H]21` [FKAB-1Go1, Ac-G-Cph-Tic-Oic-GK-Tic-Oic-G-Cph-Tic-Oic-GK-Tic-KKKK-CONH2] (Ac-G[Phe(4-Cl)][Tic][Oic]GK[Tic][Oic]G[Phe(4-Cl)][Tic][Oic]GK[Tic]KKKK-NH2), the “Minimum Inhibitory Concentration Salmonella typhimurium” value in series [1] (in vitro MIC, tested at 100, 30, 10, 3, 1, 0.3 and 0.1 μM in 1% DMSO) is reported as “not active”. In addition, the “Minimum Inhibitory Concentration Mycobacterium ranae” value in [3] (ATCC 110) was 10 µM.

`CC(=O)NCC(=O)N[C@@H](Cc1ccccc1)C(=O)N1Cc2ccccc2C[C@H]1C(=O)N1[C@H](C(=O)NCC(=O)N[C@@H](CCCCN)C(=O)N2Cc3ccccc3C[C@H]2C(=O)N2[C@H](C(=O)NCC(=O)N[C@@H](Cc3ccccc3)C(=O)N3Cc4ccccc4C[C@H]3C(=O)N3[C@H](C(=O)NCC(=O)N[C@@H](CCCCN)C(=O)N4Cc5ccccc5C[C@H]4C(=O)N[C@@H](CCCN)C(=O)N[C@@H](CCCN)C(=O)N[C@@H](CCCN)C(=O)N[C@@H](CCCN)C(N)=O)C[C@@H]4CCCC[C@@H]43)C[C@@H]3CCCC[C@@H]32)C[C@@H]2CCCC[C@@H]21` [FKAB-1Gj, Ac-GF-Tic-Oic-GK-Tic-Oic-GF-Tic-Oic-GK-Tic-Orn-Orn-Orn-Orn-CONH2] (Ac-GF[Tic][Oic]GK[Tic][Oic]GF[Tic][Oic]GK[Tic][Orn][Orn][Orn][Orn]-NH2): in series [1], the “p(MIC) Salmonella typhimurium” value is recorded as 5.00 and the “MIC Salmonella typhimurium” value is 10 µM (≈ 23.8 µg/mL). In series [2], the “p(MIC) Bacillus Subtillis” value is listed as 6.00 and the “MIC Bacillus Subtillis” value came to 1.00 µM (≈ 2.38 µg/mL). Besides, in [3], the “Actual Bioactivity” value is listed as 5.000 and the “Minimum Inhibitory Concentration Mycobacterium ranae” value turned out to be 10 µM. The “MIC Mycobacterium ranae” value in series [3] (ATCC 110) amounted to 10.00 µM (≈ 23.8 µg/mL). Besides, in series [4], the “p(MIC) Staphylococcus aureus ME/GM/TC resistant” value worked out at 5.00, the “MIC Staphylococcus aureus ME/GM/TC resistant” value amounted to 10.00 µM (≈ 23.8 µg/mL), the “Minimum Inhibitory Concentration Staphylococcus aureus ME/GM/TC resistant” value was 10 µM and the “Actual Bioactivity” value came to 5.000.

`CC(=O)NCC(=O)N[C@@H](Cc1ccccc1)C(=O)N1Cc2ccccc2C[C@H]1C(=O)N1[C@H](C(=O)NCC(=O)N[C@@H](CN)C(=O)N2Cc3ccccc3C[C@H]2C(=O)N2[C@H](C(=O)NCC(=O)N[C@@H](Cc3ccccc3)C(=O)N3Cc4ccccc4C[C@H]3C(=O)N3[C@H](C(=O)NCC(=O)N[C@@H](CN)C(=O)N4Cc5ccccc5C[C@H]4C(=O)N[C@@H](CN)C(=O)N[C@@H](CN)C(=O)N[C@@H](CN)C(=O)N[C@@H](CN)C(N)=O)C[C@@H]4CCCC[C@@H]43)C[C@@H]3CCCC[C@@H]32)C[C@@H]2CCCC[C@@H]21` [FKAB-1Gs, Ac-GF-Tic-Oic-G-Dpr-Tic-Oic-GF-Tic-Oic-G-Dpr-Tic-Dpr-DprDpr-Dpr-CONH2] (Ac-GF[Tic][Oic]G[Dap][Tic][Oic]GF[Tic][Oic]G[Dap][Tic][Dap][Dap][Dap][Dap]-NH2): the “Minimum Inhibitory Concentration Mycobacterium ranae” value in [3] (ATCC 110) was found to be 100 µM. Moreover, in [4], the “Minimum Inhibitory Concentration Staphylococcus aureus ME/GM/TC resistant” value is given as 10 μm μM.

Turning to `CC(=O)NCC(=O)N[C@@H](Cc1ccccc1)C(=O)NCC(=O)N1C(C(=O)NCC(=O)N[C@@H](CCCCN)C(=O)NCC(=O)N2C(C(=O)NCC(=O)N[C@@H](Cc3ccccc3)C(=O)NCC(=O)N3C(C(=O)NCC(=O)N[C@@H](CCCCN)C(=O)NCC(=O)N[C@@H](CCCCN)C(=O)N[C@@H](CCCCN)C(=O)N[C@@H](CCCCN)C(=O)N[C@@H](CCCCN)C(N)=O)CC4CCCCC43)CC3CCCCC32)CC2CCCCC21` (stereo partly drawn) [FKAB-1Gf1, Ac-GF-G-Oic-GK-G-Oic-GF-G-Oic-GK-G-KKKK-CONH2] (Ac-GFG[ξOic]GKG[ξOic]GFG[ξOic]GKGKKKK-NH2), in the series on red blood cells, the “% hemolysis 100/25 μM (first value)” value is given as 3.30%/ and the “% hemolysis 100/25 μM (second value)” value came out at 3.3%. The “MIC Bacillus Subtillis” value in [2] turned out to be 30.00 µM (≈ 61 µg/mL). In series [3] (ATCC 110), the “MIC Mycobacterium ranae” value came to 100.00 µM (≈ 203 µg/mL).

For the compound `CC(=O)NCCC(=O)N[C@@H](Cc1ccc(F)cc1)C(=O)N1Cc2ccccc2C[C@H]1C(=O)N1[C@H](C(=O)NCCC(=O)N[C@@H](CN)C(=O)N2Cc3ccccc3C[C@H]2C(=O)N2[C@H](C(=O)NCCC(=O)N[C@@H](Cc3ccc(F)cc3)C(=O)N3Cc4ccccc4C[C@H]3C(=O)N3[C@H](C(=O)NCCC(=O)N[C@@H](CN)C(=O)N4Cc5ccccc5C[C@H]4C(=O)N[C@@H](CN)C(=O)N[C@@H](CN)C(=O)N[C@@H](CN)C(=O)N[C@@H](CN)C(N)=O)C[C@@H]4CCCC[C@@H]43)C[C@@H]3CCCC[C@@H]32)C[C@@H]2CCCC[C@@H]21` [FBAB-1Gw, Ac-βAla-Fpa-Tic-Oic-βAla-Dpr-Tic-Oic-βAla-Fpa-Tic-Oic-βAla-Dpr-Tic-Dpr-Dpr-Dpr-Dpr-CONH2] (Ac-[βAla][Phe(4-F)][Tic][Oic][βAla][Dap][Tic][Oic][βAla][Phe(4-F)][Tic][Oic][βAla][Dap][Tic][Dap][Dap][Dap][Dap]-NH2), in series [1] (in vitro), the “selectivity for Salmonella typhimurium over Mycobacterium ranae” value is 33 fold and the “selectivity for Salmonella typhimurium over Staphylococcus aureus ME/GM/TC resistant” value is 10 fold. In addition, in series [3] (ATCC 110), the “Minimum Inhibitory Concentration Mycobacterium ranae” value amounted to 100 µM.

Take `CC(=O)NCC(=O)N[C@@H](Cc1ccccc1)C(=O)N1Cc2ccccc2C[C@H]1C(=O)N1[C@H](C(=O)NCC(=O)N[C@@H](CCCCN)C(=O)N2Cc3ccccc3C[C@H]2C(=O)N2[C@H](C(=O)NCC(=O)N[C@@H](Cc3ccccc3)C(=O)N3Cc4ccccc4C[C@H]3C(=O)N3[C@H](C(=O)NCC(=O)N[C@@H](CCCCN)C(=O)N4Cc5ccccc5C[C@H]4C(=O)N[C@@H](CCCCN)C(=O)N[C@@H](CCCCN)C(=O)N[C@@H](CCCCN)C(=O)N[C@@H](CCCCN)C(=O)NCCCN)C[C@@H]4CCCC[C@@H]43)C[C@@H]3CCCC[C@@H]32)C[C@@H]2CCCC[C@@H]21` [FKAB-1L, Ac-GF-Tic-Oic-GK-Tic-Oic-GF-Tic-Oic-GK-Tic-KKKK-CONH—CH2—CH2—CH2—NH2] (Ac-GF[Tic][Oic]GK[Tic][Oic]GF[Tic][Oic]GK[Tic]KKKK-{NH(CH2)3NH2}): in series [1], the “p(MIC) Salmonella typhimurium” value was 4.52 and the “MIC Salmonella typhimurium” value was 30 µM (≈ 74.9 µg/mL). In series [2], the “p(MIC) Bacillus Subtillis” value is reported as 5.52 and the “MIC Bacillus Subtillis” value came out at 3.00 µM (≈ 7.49 µg/mL). Also, the “Actual Bioactivity” value in series [3] came to 5.000. For the same compound, in [3] (ATCC 110), the “MIC Mycobacterium ranae” value came out at 10.00 µM (≈ 25 µg/mL) and the “Minimum Inhibitory Concentration Mycobacterium ranae” value was 10 µM. Further, in series [4], the “p(MIC) Staphylococcus aureus ME/GM/TC resistant” value stood at 5.00, the “MIC Staphylococcus aureus ME/GM/TC resistant” value amounted to 10.00 µM (≈ 25 µg/mL), the “Minimum Inhibitory Concentration Staphylococcus aureus ME/GM/TC resistant” value stood at 10 µM and the “Actual Bioactivity” value was 5.000.

Take `NCCCC[C@H](NC(=O)[C@H](CCCCN)NC(=O)[C@H](CCCCN)NC(=O)[C@H](CCCCN)NC(=O)C1Cc2ccccc2CN1C(=O)[C@H](CCCCN)NC(=O)CNC(=O)C1CC2CCCCC2N1C(=O)C1Cc2ccccc2CN1C(=O)[C@H](Cc1ccccc1)NC(=O)CNC(=O)C1CC2CCCCC2N1C(=O)C1Cc2ccccc2CN1C(=O)[C@H](CCCCN)NC(=O)CNC(=O)C1CC2CCCCC2N1C(=O)C1Cc2ccccc2CN1C(=O)[C@H](Cc1ccccc1)NC(=O)CNC(=O)CCCC[C@@H]1SC[C@@H]2NC(=O)N[C@@H]21)C(N)=O` (stereo partly drawn) [FKAB-1Gl, Biotin-GF-Tic-Oic-GK-Tic-Oic-GF-Tic-Oic-GK-Tic-KKKK-CONH2] (Biotin-GF[ξTic][ξOic]GK[ξTic][ξOic]GF[ξTic][ξOic]GK[ξTic]KKKK-NH2): the amount remaining at 0.5 h, 1 μM in the series “in vitro [5]” is 84%; in the series “in vitro [6]” it was 83%; in “in vitro [7]”, 87%; in the series “in vitro [8]”, 77%. Also, the share remaining at 1 h, 1 μM in the series “in vitro [5]” is 80%; in “in vitro [6]”, 105%; in the series “in vitro [7]”, 78%; in “in vitro [8]”, 77%. In addition, in series [3] (ATCC 110), the “Minimum Inhibitory Concentration Mycobacterium ranae” value is 10 µM. Besides, the values for the fraction remaining at 0.25 h, 1 μM in the series “in vitro [6]”, in “in vitro [7]” and in “in vitro [8]” were 73%, 96% and 80%, respectively. In [4], the “Minimum Inhibitory Concentration Staphylococcus aureus ME/GM/TC resistant” value was determined as 3 µM.
